In data set [1] the target is T1, D-3-phosphoglycerate dehydrogenase (Homo sapiens, UniProt O43175).
T1 sequence (O43175 whole entry): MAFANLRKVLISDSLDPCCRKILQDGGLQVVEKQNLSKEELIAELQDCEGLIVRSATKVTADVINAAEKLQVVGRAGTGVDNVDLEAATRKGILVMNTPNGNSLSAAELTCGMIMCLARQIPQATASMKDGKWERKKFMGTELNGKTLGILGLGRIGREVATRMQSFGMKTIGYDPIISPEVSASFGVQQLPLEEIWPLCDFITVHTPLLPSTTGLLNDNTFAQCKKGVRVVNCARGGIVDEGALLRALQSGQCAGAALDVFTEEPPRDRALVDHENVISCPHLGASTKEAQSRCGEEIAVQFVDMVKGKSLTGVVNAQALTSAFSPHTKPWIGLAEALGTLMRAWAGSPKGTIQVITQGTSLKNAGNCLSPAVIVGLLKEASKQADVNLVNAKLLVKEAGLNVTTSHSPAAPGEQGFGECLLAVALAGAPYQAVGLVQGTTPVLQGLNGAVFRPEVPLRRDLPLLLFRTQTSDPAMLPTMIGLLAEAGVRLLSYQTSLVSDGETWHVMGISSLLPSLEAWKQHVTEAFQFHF
Description: Inhibition of PHGDH (unknown origin) preincubated for 30 mins followed by substrate addition and measured after 5 mins.

Data set [2] deals with MDA-MB-468. Description: Antiproliferative activity against human MDA-MB-468 cells expressing PHGDH assessed as reduction in cell viability measured for 72 hrs by CCK-8 assay. The data set is classed as functional, cell-based. The conditions noted are these: MDA-MB-468, 72 h. In general terms: Formazan colour is commonly taken as a measure of viable cells.
Data set [3] has as its system MCF-10A. Description: Antiproliferative activity against human MCF-10A cells assessed as reduction in cell viability measured for 72 hrs by CCK-8 assay. The data set is classed as functional, cell-based.
Data set [4] is described as follows: Microsomal stability in human liver microsomes assessed as half life measured upto 60 mins by HPLC-MS/MS analysis. The data set is classed as ADME, Microsome. For orientation: Microsomes from liver hold many membrane-bound enzymes, among them those of drug oxidation.
A short description of data set [5]: Microsomal stability in rat liver microsomes assessed as half life measured upto 60 mins by HPLC-MS/MS analysis. The data set is classed as ADME, Microsome.
Data set [6] can be described thus: Microsomal stability in mouse liver microsomes assessed as half life measured upto 60 mins by HPLC-MS/MS analysis. The format is ADME, Microsome.
Data set [7] can be described thus: Microsomal stability in human liver microsomes assessed as intrinsic clearance measured upto 60 mins by HPLC-MS/MS analysis. The data set is classed as ADME, Microsome. The conditions noted are these: 1 h.
Data set [8] in a line: Microsomal stability in rat liver microsomes assessed as intrinsic clearance measured upto 60 mins by HPLC-MS/MS analysis. The data set is classed as ADME, Microsome. The conditions noted are these: 1 h.
Data set [9] in a line: Microsomal stability in mouse liver microsomes assessed as intrinsic clearance measured upto 60 mins by HPLC-MS/MS analysis. The format is ADME, Microsome. The conditions noted are these: 1 h.
The target in data set [10] is T1, D-3-phosphoglycerate dehydrogenase. Description: Inhibition of wild type PHGDH (unknown origin) preincubated for 30 mins followed by substrate addition and measured after 5 mins.
Data set [11] has as its target D-3-phosphoglycerate dehydrogenase (Homo sapiens, UniProt O43175, D175A). Nature of the data set: Inhibition of PHGDH D175A mutant (unknown origin) preincubated for 30 mins followed by substrate addition and measured after 5 mins.
Data set [12] relates to BT-20. Nature of the data set: Antiproliferative activity against human BT-20 cells expressing PHGDH assessed as reduction in cell viability measured for 72 hrs by CCK-8 assay. The data set is classed as functional, cell-based. The settings on record: BT-20, 72 h.
The subject of data set [13] is PC-9. Nature of the data set: Antiproliferative activity against human PC-9 cells expressing PHGDH assessed as reduction in cell viability measured for 72 hrs by CCK-8 assay. The conditions noted are these: PC-9, 72 h. The format is functional, cell-based.
Data set [14] relates to NCI-H1975. Nature of the data set: Antiproliferative activity against human NCI-H1975 cells expressing PHGDH assessed as reduction in cell viability measured for 72 hrs by CCK-8 assay. The data set is classed as functional, cell-based. The conditions noted are these: NCI-H1975, 72 h.
The test system of data set [15] is HCT-116. Description: Antiproliferative activity against human HCT-116 cells expressing PHGDH assessed as reduction in cell viability measured for 72 hrs by CCK-8 assay. The data set is classed as functional, cell-based. The conditions noted are these: HCT-116, 72 h.
Data set [16] concerns HCC827. Description: Antiproliferative activity against human HCC827 cells expressing PHGDH assessed as reduction in cell viability measured for 72 hrs by CCK-8 assay. The data set is classed as functional, cell-based. The settings on record: HCC827, 72 h.

In ChEMBL document CHEMBL5316299, “Discovery of Novel Drug-like PHGDH Inhibitors to Disrupt Serine Biosynthesis for Cancer Therapy” (J Med Chem, 2023) one finds IC50, half-life and CLH data, which are given here for 32 compounds.

One may read the IC50 as the point on the concentration scale where inhibition reaches its midpoint. One may read the half-life as the time needed for the level to fall by half in the phase considered.

Structures are written as SMILES.

Sequence of D-3-phosphoglycerate dehydrogenase (Homo sapiens, UniProt O43175, D175A) (O43175 2-533 D175A limits assumed): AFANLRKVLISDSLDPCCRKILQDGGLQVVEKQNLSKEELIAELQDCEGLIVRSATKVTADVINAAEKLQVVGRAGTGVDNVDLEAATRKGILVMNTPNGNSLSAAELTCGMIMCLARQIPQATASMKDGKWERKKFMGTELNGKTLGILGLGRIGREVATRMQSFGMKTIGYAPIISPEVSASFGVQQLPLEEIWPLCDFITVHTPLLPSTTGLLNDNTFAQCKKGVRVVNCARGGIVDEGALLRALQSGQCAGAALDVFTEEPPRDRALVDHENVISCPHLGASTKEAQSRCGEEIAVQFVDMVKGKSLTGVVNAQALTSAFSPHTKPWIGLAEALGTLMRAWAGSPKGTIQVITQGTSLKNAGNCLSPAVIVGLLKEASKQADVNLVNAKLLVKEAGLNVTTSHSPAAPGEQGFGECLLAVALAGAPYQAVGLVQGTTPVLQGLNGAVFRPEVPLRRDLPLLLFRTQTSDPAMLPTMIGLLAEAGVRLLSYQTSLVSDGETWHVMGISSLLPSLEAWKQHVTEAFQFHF

On to `CC(=O)c1cccc(NS(=O)(=O)c2ccc(C(=O)Nc3nc(-c4ccccc4)cs3)cc2)c1`, for which the IC50 in [1] was 5.33 µM; in data set [2], 8.4 µM; in [3], more than 100 µM.

Consider `O=C(O)c1cccc(NS(=O)(=O)c2ccc(C(=O)Nc3nc(-c4ccccc4)cs3)cc2)c1`, for which the results for the IC50 in [1], in data set [2] and in data set [3] were 3.59 µM, more than 100 µM and more than 100 µM, respectively.

`O=C(O)Cc1cccc(NS(=O)(=O)c2ccc(C(=O)Nc3nc(-c4ccccc4)cs3)cc2)c1`: the IC50 was 7.89 µM in [1], more than 100 µM in data set [2] and more than 100 µM in data set [3].

With `O=C(Nc1nc(-c2ccccc2)cs1)c1ccc(S(=O)(=O)Nc2cccc(CCO)c2)cc1`, the IC50 in data set [1] worked out at 7.49 µM; in data set [2], 8.1 µM; in data set [3], 93.4 µM.

The compound `CC(=O)c1cccc(NS(=O)(=O)c2ccc(C(=O)Nc3nc(-c4ccc(F)cc4F)cs3)cc2)c1` registered an IC50 in [1] of 6.7 µM.

For `CC(=O)N1CCC(NS(=O)(=O)c2ccc(C(=O)Nc3nc(-c4ccccc4)cs3)cc2)CC1`, the half-inhibitory concentration (IC50) in data set [1] is 6.81 µM; in data set [2] it was 72.3 µM; in data set [3], more than 100 µM.

`CN(C)CCNS(=O)(=O)c1ccc(C(=O)Nc2nc(-c3ccccc3)cs2)cc1` yielded an IC50 in data set [1] of 15.7 µM.

For the compound `COc1cccc(-c2csc(NC(=O)c3ccc(S(=O)(=O)Nc4cccc(C(C)=O)c4)cc3)n2)c1`, the values for the IC50 in data set [1], in [2] and in data set [3] were 4.8 µM, 4.8 µM and 100 µM, respectively. For the same compound, the figures for the half-life in [4], in data set [5] and in data set [6] were 0.85 min, 0.84 min and 0.85 min, respectively. Further, the CLH in [7] came out at 2485.8 mL/min/g; in data set [8], 2500.2 mL/min/g; in data set [9] it was 2471.9 mL/min/g.

For `O=C(Nc1nc(-c2ccccc2)cs1)c1ccc(S(=O)(=O)O)cc1`, the IC50 in data set [1] was 12.6 µM; in [2], more than 100 µM.

On to `O=C(Nc1nc(-c2ccccc2)cs1)c1ccc(S(=O)(=O)Nc2ccccc2)cc1`, for which the values for the IC50 in [1], in data set [2] and in data set [3] were 6.5 µM, 11.6 µM and more than 100 µM, respectively.

Consider `CN1CCN(c2cccc(NS(=O)(=O)c3ccc(C(=O)Nc4nc(-c5ccccc5)cs4)cc3)c2)CC1`, for which the IC50 in [1] was 6.16 µM; in data set [2] it was 9.7 µM; in data set [3] it was 25.5 µM.

As for `CC(=O)c1cccc(NS(=O)(=O)c2ccc(C(=O)Nc3nc(-c4ccccc4F)cs3)cc2)c1`, the IC50 came out at 3.8 µM in [1], 65.4 µM in data set [2] and 62.9 µM in data set [3].

For the compound `COc1ccccc1-c1csc(NC(=O)c2ccc(S(=O)(=O)Nc3cccc(C(C)=O)c3)cc2)n1`, the IC50 in data set [1] is 2.2 µM; in data set [2], 5.5 µM; in data set [3], more than 100 µM. Also, the half-life worked out at 26 min in data set [4], 2.5 min in data set [5] and 13.7 min in [6]. Further, the CLH in data set [7] was determined as 82 mL/min/g; in data set [8], 838.8 mL/min/g; in data set [9], 153 mL/min/g.

Turning to `O=C(Nc1nc(-c2ccccc2)cs1)c1ccc(S(=O)(=O)N2CCC(CCO)CC2)cc1`, in data set [1], the IC50 is 12.2 µM.

With `O=C(Nc1nc(-c2ccccc2)cs1)c1ccc(S(=O)(=O)Nc2cccc(CO)c2)cc1`, the 50% inhibitory concentration (IC50) in data set [1] is 7.74 µM; in data set [2] it was 10.1 µM; in [3] it was more than 100 µM.

In [1], `O=C(Nc1nc(-c2ccccc2)cs1)c1ccc(S(=O)(=O)N2CCC(C(=O)O)CC2)cc1` gave an IC50 of 13 µM.

In the case of `CC(=O)c1cccc(NS(=O)(=O)c2ccc(C(=O)Nc3nc(-c4ccc(F)c(F)c4)cs3)cc2)c1`, in data set [1], inhibition was half-maximal at 17.2 µM (IC50).

Regarding `Cc1cc(Cl)c2cc(C(=O)N[C@H](CO)c3ccc(S(=O)(=O)CC(=O)O)cc3)n(C)c2c1`, the IC50 in [1] is 0.106 µM; in [2] it was more than 100 µM; in data set [3] it was more than 100 µM; in data set [10] it was 0.1 µM; in data set [11], more than 3 µM.

In [1], `O=C(Nc1nc(-c2ccccc2)cs1)c1ccc(S(=O)(=O)NCCN2CCOCC2)cc1` displayed an IC50 of 10.8 µM.

On to `CC(=O)c1cccc(NS(=O)(=O)c2ccc(C(=O)Nc3nc(-c4ccc(F)cc4)cs3)cc2)c1`, for which the IC50 came out at 2.6 µM in data set [1], 11.7 µM in data set [2] and 100 µM in data set [3].

For `O=C(Nc1nc(-c2ccccc2)cs1)c1ccc(S(=O)(=O)Nc2cccc(N3CCOCC3)c2)cc1`, the IC50 was 7.04 µM in data set [1], more than 100 µM in [2] and more than 100 µM in data set [3].

In the case of `CC(=O)c1cccc(NS(=O)(=O)c2ccc(C(=O)Nc3nc(-c4cccc(C)c4)cs3)cc2)c1`, the IC50 came out at 2.4 µM in data set [1], 3 µM in data set [2] and 100 µM in data set [3]. The half-life came to 1 min in data set [4], 0.9 min in data set [5] and 2.5 min in data set [6]. Further, the CLH in data set [7] was determined as 1589.7 mL/min/g; in [8], 2378.4 mL/min/g; in data set [9] it was 835.6 mL/min/g.

`COC(=O)CS(=O)(=O)c1ccc([C@@H](CO)NC(=O)c2cc3c(Cl)cc(C)cc3n2C)cc1`: the figures for the IC50 in data set [1], in data set [2] and in data set [3] were 0.162 µM, 27.9 µM and more than 100 µM, respectively.

In [1], `O=C(O)CNS(=O)(=O)c1ccc(C(=O)Nc2nc(-c3ccccc3)cs2)cc1` showed an IC50 of 15.8 µM.

Regarding `CNC(=O)c1cccc(NS(=O)(=O)c2ccc(C(=O)Nc3nc(-c4ccccc4)cs3)cc2)c1`, the IC50 in data set [1] was 4.96 µM; in data set [2] it was 15 µM; in data set [3] it was more than 100 µM.

Regarding `Cc1cc(C)nc(NS(=O)(=O)c2ccc(C(=O)Nc3nc(-c4ccccc4)cs3)cc2)n1`, the IC50 in data set [1] is 3.19 µM; in data set [2] it was 30.1 µM; in [3] it was 86.5 µM.

The compound `CC(=O)c1cccc(NS(=O)(=O)c2ccc(C(=O)Nc3cc(-c4ccccc4)cs3)cc2)c1` showed a half-maximal inhibitory concentration (IC50) in data set [1] of 12.9 µM.

Compound `COCCNS(=O)(=O)c1ccc(C(=O)Nc2nc(-c3ccccc3)cs2)cc1` came in with an IC50 in [1] of 17.8 µM.

`O=C(Nc1nc(-c2ccccc2)cs1)c1ccc(S(=O)(=O)Cl)cc1`: the IC50 in [1] stood at 18.5 µM.

Take `CN1CCN(CCNS(=O)(=O)c2ccc(C(=O)Nc3nc(-c4ccccc4)cs3)cc2)CC1`: the IC50 in data set [1] turned out to be 11.4 µM.

On to `CCOC(=O)c1sc(NC(=O)c2ccco2)c(SC#N)c1C`, for which the IC50 in [2] was 20.9 µM; in data set [3], 57.2 µM.

Regarding `CC(=O)c1cccc(NS(=O)(=O)c2ccc(C(=O)Nc3nc(-c4cccc(O)c4)cs3)cc2)c1`, the IC50 was 69.3 µM in data set [2]; 69.3 µM in data set [12]; more than 100 µM in data set [13]; 89.7 µM in data set [14]; 84.7 µM in data set [15]; 55.7 µM in data set [16].
